# Source: patent US20150253330A1, “PRE-SELECTION OF SUBJECTS FOR THERAPEUTIC TREATMENT WITH AN HSP90 INHIBITOR BASED ON HYPOXIC STATUS” (Synta Pharmaceuticals Corp., priority 2012, published 2015)
# pIC50: −log10 of the molar value.
# Columns and labels:
# [1] = system: OCUB-M; experiment: 72 hr viability by CTG, breast cancer cell line; format: cell-based; settings: Basal
# Description: (§1) Breast cancer is a heterogeneous disease historically broken down into 4 subtypes. Various compounds were tested for their effects in cell viability assays using various breast cancer cell lines. Cellular viability was assessed using the CellTiter-Glo® Luminescent Cell Viability Assay (Promega, Madison, Wis., USA) according to the manufacturer's protocol. KRAS mutant NSCLC cell lines were seeded into 96-well plates based on optimal growth rates determined empirically for each line. Twenty-four hours after plating, cells were dosed with graded concentrations of ganetespib for 72 h. CellTiter-Glo® was added (50% v/v) to the cells, and the plates incubated for 10 min prior to luminescent detection in a SpectraMax® Plus 384 microplate reader (Molecular Devices, Sunnyvale, Calif., USA). Data were normalized to percent of control and IC50 values used to determine the sensitivity of each line. For the comparative analysis study with MEK and PI3K/mTOR inhibitors, A549, H2009, Calu-1, and H358 cells were treated with graded concentrations of ganetespib, AZD6244, or BEZ235 for 72 h and cell viability measured as above.
# (§2) Breast cancer, cell lines, marker status, and IC50 in response to ganetespib at 72 hr (viability by CTG).
# [2] = system: MDA-MB-468; experiment: 72 hr viability by CTG, breast cancer cell line; format: cell-based; settings: Homo sapiens, MDA-MB-468, Basal A
# Description: as §1, §2
# [3] = system: BT-474; experiment: 72 hr viability by CTG, breast cancer cell line; format: cell-based; settings: Homo sapiens, BT-474, Luminal, ER+ PR+ HER2+, viability by CTG (2D)
# Description: as §1, §2
# [4] = system: solid tumors; experiment: Phase I dose escalation study, twice-weekly administration in patients with solid tumors; format: in vivo, human
# Description: An open-label Phase 1 dose-escalation study in subjects with solid tumors was performed. The first cohort consisted of three subjects who received 2 mg/m^2 of ganetespib during a 1-hour infusion 2 times per week (e.g., [Monday, Thursday] or [Tuesday, Friday]) for three consecutive weeks followed by a 1 week dose-free interval. The first infusion for the first three subjects was staggered by a minimum of 5 days between subjects. This staggered enrollment scheme was followed for the first cohort only. Subjects tolerating ganetespib continued treatment past week 8 until disease progression as long as the re-treatment criteria continued to be met.
# Subsequent cohorts were originally planned to receive escalating doses of 4, 7, 10, 14, 19, 25, 33, 40, and 48 mg/m^2, provided that the previous dose was well-tolerated during cycle 1 (week 1-4). The dose escalation scheme was updated to 25, 50, 75 and 100 mg/m^2, provided that the previous dose was well-tolerated during cycle 1. Following the completion of enrollment at 50 mg/m^2 twice per week, subsequent cohorts were to be treated at 100 mg/m^2 (100% increase above prior dose) and 120 mg/m^2 (20% increase above prior dose), with further dose increments to be approximately 20% over the previous dose level, until the maximum tolerated dose (MTD) was determined. Enrollment was completed at 100 mg/m^2 and the next doses planned were 120 mg/m^2 and 144 mg/m^2.
# There had to be at least three evaluable subjects in a cohort before dose escalation could occur. […] Once a subject experienced a DLT the cohort was expanded to six subjects. If only 1 of 6 subjects experienced a DLT, further dose escalation was allowed. However, if 2 of 3 or 2 of 6 subjects experienced a DLT, dose escalation terminated.
# A subject's duration of participation included a 2-week screening period and two 4-week treatment cycles totaling approximately 10 weeks. However, at the investigator's discretion, subjects tolerating ganetespib continued treatment past week 8 until disease progression.
# The subjects in this study had histologically- or cytologically-confirmed non-hematological malignancy that was metastatic or unresectable. The subjects were documented to be refractory to, or were not candidates for, current standard therapy.
# Ganetespib was formulated using 90% v/v PEG 300 and 10% v/v Polysorbate 80 at a concentration of 8 mg/mL and was packaged in a Type I glass amber vial, stoppered with a Flurotec-coated stopper, and sealed. […] The formulation was further diluted with 5% dextrose for injection in infusion container (DEHP-free 500 mL) to a concentration range of 0.02 to 1.2 mg/mL and administered via infusion tubing (DEHP-free) with a 0.22 micron end filter over an hour to the patient. The dosing solution once prepared was administered within 3 hours. Eligible subjects received the drug during a 1-hour infusion 2 times per week for 3 consecutive weeks followed by a 1-week dose-free interval. The amount of ganetespib administered depended upon the cohort to which the subject was assigned and the subject's body surface area (BSA).
# A person with triple negative breast cancer (with Stage III invasive ductal carcinoma) from Example 1 enrolled in a Phase I dose escalation study of ganetespib. The patient's disease had progressed on 7 prior chemotherapeutic regimens. The patient was administered 144 mg/m^2 of ganetespib twice-weekly for 3 weeks, followed by 1 week dose-free. […] After 4 cycles, there was a documented 31% reduction in target lesion size (partial response). The treatment was interrupted due to brain metastases treated with whole brain radiation, but treatment with ganetespib resumed in cycle 5.
# [5] = system: HGC-27; experiment: 72 hr viability by Syto60, gastric cell line; format: cell-based; settings: Homo sapiens, Syto60 (lower), read-out: ganetespib IC50
# [6] = system: A549 NSCLC cells; experiment: Mouse xenograft tumor model, ganetespib and BEZ235 (Example 9); format: in vivo, mice; settings: ganetespib 50 mg/kg weekly i.v.; BEZ235 10 mg/kg 5 times a week p.o.; particularly at later time points; FIG. 8
# Text: Female immunodeficient CD-1 (nude) mice (Charles River Laboratories, Wilmington, Mass.) were maintained in a pathogen-free environment, and all in vivo procedures were approved by the Synta Pharmaceuticals Corp. Institutional Animal Care and Use Committee. A549 NSCLC cells (7.5×10^6) were subcutaneously implanted into the animals. Mice bearing established tumors (100-200 mm^3) were randomized into treatment groups of 8 and i.v. dosed via the tail vein with either vehicle, ganetespib formulated in 10/18 DRD (10% DMSO, 18% Cremophor RH 40, 3.6% dextrose, 68.4% water) or p.o. dosed with BEZ235 formulated in PEG300/NMP (90% PEG300, 10% N-Methylpyrrolidone). Animals were treated with ganetespib at 50 mg/kg weekly or BEZ235 at 10 mg/kg 5 times a week, either alone or in combination. Tumor growth inhibition was determined as described previously. See Proia et al, PLoS One. 2011; 6(4):e18552.
# [7] = system: 15 KRAS mutant NSCLC cell lines; experiment: Viability of KRAS mutant NSCLC cell line panel, 72 h, CellTiter-Glo; format: cell-based; settings: across 15 KRAS mutant NSCLC cell lines in vitro
# Description: as §1
# [8] = system: GT3TKB; experiment: 72 hr viability by Syto60, gastric cell line; format: cell-based; settings: Syto60 (lower), read-out: ganetespib IC50
# [9] = 41 of 54 enrolled patients assessable for response
# [10] = one TNBC patient, 144 mg/m^2 twice-weekly for 3 weeks, 1 week dose-free
smiles,measurement,setting,value
CC(C)c1cc(-c2nnc(O)n2-c2ccc3c(ccn3C)c2)c(O)cc1O [ganetespib],pIC50,[1],7.41
same,pIC50,[2],7.57
same,pIC50,[3],7.89
same,"Confirmed partial responses, patient with melanoma",[4]; [9],1 patient
same,"Confirmed partial responses, patient with triple negative breast cancer",[4]; [9],1 patient
same,Patients who achieved stable disease,[4]; [9],15 patients
same,Tolerability,"[4]; one TNBC patient, 144 mg/m^2 twice-weekly",tolerated the treatment well with mild/moderate toxicities
same,Reduction in target lesion size after 4 cycles (partial response),[4]; [10],31%
same,Response per RECIST after 2 cycles,[4]; [10],stable disease
same,pIC50,[5],7.96
same,Average tumor volume as compared to vehicle,[6],significantly reduced
same,pIC50,[7],7.62
same,pIC50,[8],8.22
